Results reported in US20230293530A1, “AGENTS FOR SENSITIZING SOLID TUMORS TO TREATMENT” (Yeda Research and Development Co. Ltd., priority 2020, published 2023).

Columns and labels:
4T1 cells = assay: In-vivo EDHB experiment, 4T1 tumors in mammary fat pad; set-up: species or system female BALB/c mice
Protocol: In-vivo EDHB experiment: Eight-week-old female BALB/c mice were inoculated with 4T1 in the mammary fat pad (1 × 10^6 cells). ethyl 3,4 dihydroxybenzoate (EDHB) treatment was started after 4 days when the primary tumor nodule was established and palpable. EDHB (40 mg per kg) was intraperitoneally injected daily into cancer-bearing mice. EDHB was initially dissolved in 100% Ethanol and diluted to required concentration in saline. 95% Saline/5% Ethanol mix without drug was injected as a vehicle to control animals. Following injection, mice were treated with 250 ug of anti PD-1 antibody on days 7, 11, 13, 15. On day 19, mice were euthanized and tumors were removed and weighted.

[1] = system: NSCLC PDX explants with autologous CD8+ T cells; assay: Co-culture of NSCLC PDX tumor explants with autologous CD8+ T cells, IFNγ ELISA; format: cell-based, human; settings: for IFNγ secretion by autologous CD8+ T cells, anti-PD1 plus mizoribine-treated explants: explants pre-treated with mizoribine 0.3 mM 10 hrs, nivolumab or pembrolizumab 20 µg/mL, 18 hours
From the text: Two patients bearing metastatic non-small cell lung cancer (NSCLC) were included in this study. Blood samples and fresh tumor tissue samples were procured just after their biopsy with patient consent and with Helsinki approval (number 0093-19-SOR). The samples were placed in serum free DMEM (Gibco) media then processed for implantation in NSG (NOD scid gamma) mice. Tumor tissue samples were implanted subcutaneously in dorsal flanks of the mice to form patient-derived xenografts (PDXs). All animal experiments were done under Institutional Animal Care and Use Committee (IACUC) of Ben-Gurion University of the Negev (BGU’s IACUC) according to specified protocols aiming to ensure animal welfare and reduce su □ ering. The Animal ethical clearance protocol number used for this research is IL-80-12-2015. After isolation of peripheral blood mononuclear cells (PBMCs) from the peripheral blood of the patients according to standard protocol using Lymphocyte Separation Medium (LSM, MP Biomedicals, SKU 0850494-CF), CD8^+ T cells were isolated from PBMCs by employing human CD8 Microbeads (Miltenyi Biotec, 130-045-201), LS column (Miltenyi Biotec, 130-042-401) and MidiMACS Separator (130-042-302) following manufacturer’s protocol. For culturing and maintenance of CD8 T cells, RPMI containing 10% human male AB plasma (Sigma, H4522), 1 mM sodium pyruvate, 2 mM L-glutamine, 0.1 mM MEM non-essential amino acids, 1% penicillin/streptomycin, 10 mM HEPES (Life Technologies), 200 IU/mL recombinant human IL-2 (PeproTech) and 50 ng/mL anti-human CD3 Antibody (BioLegend, 317302) were used for the first 48 hrs followed by culturing and passaging in media containing 200 IU/mL of IL-2.
2×2×2 mm^3 tumor tissue explants were cut from PDXs with a specific tissue cutter and seeded singly in 48 well flat-bottom plates and incubated with either mizoribine (0.3 mM) in 400 µl of media or with only media for 10 hrs. Then, explants were washed once and transferred into new 48 well flat-bottom plates containing 2×10^5 CD8+T cells/well along with nivolumab (Opdivo, 20 µg/mL), pembrolizumab (Keytruda, 20 µg/mL) or mock solventin fresh 400 µl RPMI containing 20 IU/ml ofIL-2. After 18 hours of incubation, the supernatant was collected from the wells and then assayed for standard IFNγ ELISA assay (ELISA MAX, Biolegend) according to manufacturer’s instructions.
Two patients bearing metastatic non-small cell lung cancer (NSCLC) were included in this study. Blood samples and fresh tumor tissue samples were procured just after their biopsy with patient consent and with Helsinki approval (number 0093-19-SOR). The samples were placed in serum free DMEM (Gibco) media then processed for implantation in NSG (NOD scid gamma) mice (NOD.Cg-Prkdcscid Il2rgtm1Wjl, The Jackson Laboratory). Tumor tissue samples were implanted subcutaneously in dorsal flanks of the 7-9 weeks old male mice to form patient-derived xenografts (PDXs).
After isolation of peripheral blood mononuclear cells (PBMCs) from the peripheral blood of the patients according to standard protocol using Lymphocyte Separation Medium (LSM, MP Biomedicals, SKU 0850494-CF), CD8^+ T cells were isolated from PBMCs by employing human CD8 Microbeads (Miltenyi Biotec, 130-045-201), LS column (Miltenyi Biotec, 130-042-401) and MidiMACS Separator (130-042-302) following manufacturer’s protocol. For culturing and maintenance of CD8 T cells, RPMI containing 10% human male AB plasma (Sigma, H4522), 1 mM sodium pyruvate, 2 mM L-glutamine, 0.1 mM MEM non-essential amino acids, 1% penicillin/streptomycin, 10 mM HEPES (Life Technologies), 200 IU/mL recombinant human IL-2 (PeproTech) and 50 ng/mL anti-human CD3 Antibody (BioLegend, 317302) were used for the first 48 hrs followed by culturing and passaging in media containing 200 IU/mL of IL-2.
PDXs from patients with lung cancer non responsive to anti-PD1 were exposed to no treatment, to mizoribine, or to either EDHB (left panel) or Viagra (right panel). […]

4T1 breast cancer cells = assay: In-vitro EDHB nucleotide analysis by LC-MS, 4T1; format: cell-based, murine; settings: 4T1 cells, 200 uM EDHB, 8 hours
From the text: LC-MS analysis: The LC-MS/MS instrument consisting of an Acquity I-class UPLC system (Waters) and Xevo TQ-S triple quadrupole mass spectrometer (Waters), equipped with an electrospray ion source, and operated in positive ion mode was used for analysis of nucleoside monophosphates. MassLynx and TargetLynx software (version 4.1, Waters) were applied for the acquisition and analysis of data. Chromatographic separation was done on a 100 mm × 2.1 mm internal diameter, 1.8-µm UPLC HSS T3 column equipped with 50 mm × 2.1 mm internal diameter, 1.8-µm UPLC HSS T3 pre-column (both Waters Acquity) with mobile phases A (10 mM ammonium acetate and 5 mM ammonium hydrocarbonate buffer, pH 7.65 adjusted with 10% acetic acid) and B (acetonitrile) at a flow rate of 0.3 mL min-1 and column temperature 25° C. […] Nucleotide concentration was calculated using a standard curve of the relevant nucleotide concentration in each sample. Standard curves included increasing concentration of all measured nucleotides ranging from 0-10 ug/ml that were positioned at the beginning and at the end of each run. All the calculated values for the different nucleotides in each sample fell within the standard curve range. […]

A549 cells = assay: Nucleotide levels by LC-MS with or without methotrexate; format: cell-based; settings: 1.2 µM Methotrexate
Protocol: Methotrexate treatment: A549 cells were grown for 48 hr in control medium or supplemented with 1.2 µM Methotrexate (Holland-Moran). Nucleotide levels were measured as described below by LC-MS. Purine/pyrimidine ratio was calculated by dividing (AMP+GMP+ATP+ADP+GTP) concentration by (UMP+CMP+TMP+UTP+CTP+TTP) concentration.
LC-MS analysis: The LC-MS/MS instrument consisting of an Acquity I-class UPLC system (Waters) and Xevo TQ-S triple quadrupole mass spectrometer (Waters), equipped with an electrospray ion source, and operated in positive ion mode was used for analysis of nucleoside monophosphates. MassLynx and TargetLynx software (version 4.1, Waters) were applied for the acquisition and analysis of data. Chromatographic separation was done on a 100 mm × 2.1 mm internal diameter, 1.8-µm UPLC HSS T3 column equipped with 50 mm × 2.1 mm internal diameter, 1.8-µm UPLC HSS T3 pre-column (both Waters Acquity) with mobile phases A (10 mM ammonium acetate and 5 mM ammonium hydrocarbonate buffer, pH 7.65 adjusted with 10% acetic acid) and B (acetonitrile) at a flow rate of 0.3 mL min-1 and column temperature 25° C. A gradient was used as follows: for 0-3 min the column was held at 0.2% B, then 3-3.5 min a linear increase to 100% B, 3.5-4.0 min held at 100% B, 4.0-4.5 min back to 0.2% B and equilibration at 0.2% B for 2.5 min. Samples kept at 8° C. were automatically injected in a volume of 3 µl. For mass spectrometry, argon was used as the collision gas with a flow of 0.10 mL min-1. The capillary voltage was set to 2.50 kV, source temperature 150° C., desolvation temperature 400° C., cone gas flow 150 1 hr-1, desolvation gas flow 800 1 hr-1. Nucleotide concentration was calculated using a standard curve of the relevant nucleotide concentration in each sample. Standard curves included increasing concentration of all measured nucleotides ranging from 0-10 ug/ml that were positioned at the beginning and at the end of each run. All the calculated values for the different nucleotides in each sample fell within the standard curve range. Analytes were detected in positive mode using multiple-reaction monitoring listed in Lee, J. S. et al. 2018 (REF_9).
Nucleotide levels of 4T1 cells grown either with or without 1.2 µM Methotrexate (Holland-Moran) for 48 h, were measured and quantified by liquid chromatography-mass spectrometry (LC-MS) as µg/mg protein.

CCOC(=O)c1ccc(O)c(O)c1 [EDHB, Ethyl 3,4 dihydroxybenzoate]
tumor weight, EDHB and anti PD-1 combination treatment (4T1 cells; 40 mg/kg EDHB IP daily from day 4, 250 ug anti PD-1 IP days 7, 11, 13, 15): reduces tumor weight | total weight of the mice (4T1 cells; 40 mg/kg EDHB IP daily, with anti PD-1): did not cause any change | response to anti-PD1 therapy (IFN-g response) in PDX of non responsive patients ([1]; PDXs from lung cancer patients non responsive to anti-PD1, IFN-g measured following anti-PD1): increases response to anti-PD1 therapy | cellular deoxypyrimidine to deoxypurine ratio (pyrimidine / purine ratio) (4T1 breast cancer cells): increase in pyrimidine / purine ratio

CN(Cc1cnc2nc(N)nc(N)c2n1)c1ccc(C(=O)N[C@@H](CCC(=O)O)C(=O)O)cc1 [Methotrexate]
AMP level, Methotrexate Treatment (A549 cells; 48 h, 4T1 cells): 483.2 µg/mg pt | ATP level, Methotrexate Treatment (A549 cells; 48 h, 4T1 cells): 75.1 µg/mg pt | CMP level, Methotrexate Treatment (A549 cells; 48 h, 4T1 cells): 7.3 µg/mg pt | CTP level, Methotrexate Treatment (A549 cells; 48 h, 4T1 cells): 12.0 µg/mg pt | GMP level, Methotrexate Treatment (A549 cells; 48 h, 4T1 cells): 28.46 µg/mg pt | GTP level, Methotrexate Treatment (A549 cells; 48 h, 4T1 cells): 16.7 µg/mg pt | TMP level, Methotrexate Treatment (A549 cells; 48 h, 4T1 cells): 0.0078 µg/mg pt | TTP level, Methotrexate Treatment (A549 cells; 48 h, 4T1 cells): 0.004432 µg/mg pt | UMP level, Methotrexate Treatment (A549 cells; 48 h, 4T1 cells): 38.39 µg/mg pt | UTP level, Methotrexate Treatment (A549 cells; 48 h, 4T1 cells): 36.9 µg/mg pt | purine to pyrimidine ratio (A549 cells; high ASS1 expressing lung cancer cells (A549), 48 hr): decreased their purine to pyrimidine ratio

nivolumab: anti-PD1 antibody
IFNγ secretion by autologous CD8+ T cells, anti-PD1 plus mizoribine-treated explants [1]: significant elevation in IFNγ secretion

pembrolizumab: anti-PD1 antibody
IFNγ secretion by autologous CD8+ T cells, anti-PD1 plus mizoribine-treated explants [1]: significant elevation in IFNγ secretion
